Measured values as given in US10822656B2, “Methods and systems for high-throughput toxicity screening of a compound using mahalanobis values” (priority 2017, dated 2020).

System: human hepatocytes (cell lines Hu1153, Hu1154, Hu1156, Hu1164)
Assay: Transcriptomics Mahalanobis distance (MD) toxicity analysis of hepatocytes exposed in-vitro
Format: cell-based
Method: In one embodiment, four human donors were used to provide four independent cell lines of hepatocytes.
A number of the 192 genes were analyzed using more than one probe and as a result there were 465 different measurements or variables for each experiment. […] PPARα are nuclear receptor proteins of the hepatocyte that regulate gene expression through transcription factors and are essential in the regulation of lipid metabolism.
The MD is calculated as follows (Taguchi & R. Jungulum, 2002): MDj−Dj^2=Z′ijC^−1Zij, and Equation 1: Zij=(Xij−mi)/si Equation 2: Xij=value of the ith characteristic (gene) of the jth observation (experiment) mi=mean of the ith characteristic (gene) si=standard deviation of the ith characteristic (gene) Zij=(z1j, z2j, z3j, . . . , zkj) standardized vector of the standardized values of the Xij Zij′=transpose of the Zij standardized vector C^−1=inverse of the correlation matrix k=total number of gene measurements (e.g. 465 variables).
Data must be collected to identify the reference group from the unstressed cells. […] The MS will be determined by the normal group's mean and standard deviation vector, and the correlation matrix. The reference group will be referred to as the healthy/normal group. This is the most important aspect of the approach, as this MS will be the reference point in n-space. It is used to compare stressed hepatocyte data collected from the perturbed experiments. The measurement scale extends from the centroid of the MS and is typically one unit distance away. The centroid of the MS is the zero point for the measurement scale. The larger the Mahalanobis distance (MD) number the further it is from the centroid of the Mahalanobis space and the higher the risk from exposure. The Mahalanobis distance for each perturbed experiment will be derived from information describing the MS and will be shown below. The MD is a value that describes the relationship between the normal group and the experiment. As hepatocyte cells are stressed by varying concentrations and times of exposure, the same variables that were measured to establish the MS for the normal group will be used to determine a MD number for the experimental data. […] This MD number will be indicative of the experiments generalized distance from the centroid of the healthy/normal group. As concentration and time of exposure increases the MD number for that experiment could increase or decrease, depending on whether the stress of the genes are increasing or decreasing. In general, unstressed hepatocytes tend to look quite similar to the healthy/normal group, while stressed hepatocytes tend to look quite different from the healthy/normal group and will have a higher MD number. In addition, the changes in correlation structure among the stressed hepatocytes strongly affect the MD number. In the case where a hepatocyte's MD number reaches a predetermined high threshold value, genes may start to mutate rapidly. If the MD number becomes similar to those of the healthy/normal group, the risk associated to exposure by a particular compound could be considered a low risk from exposure.
Referring now to FIG. 14, in one embodiment, 20 different experiments were conducted to build the healthy/normal group where the cells were not exposed to chemical, e.g. GW7647. FIG. 14 is an illustration of a snapshot of the database of Normal Unexposed Observation Data where the transcriptomics data of four cell lines—1153, 1154, 1156, and 1164—are provided across five time periods—2, 6, 12, 24, and 72 hours.
This baseline information is used to determine the amount of stress the exposed cells are experiencing from the reference cell pattern of unstressed cells—the healthy/normal group. All the data collected in the 120 different experiments and 465 variables, used the same units of measure consistent with measuring differential gene expression data. […]

CC(C)(Sc1ccc(CCN(CCCCC2CCCCC2)C(=O)NC2CCCCC2)cc1)C(=O)O [GW7647]
share of the 192 significant genes showing up-regulation: Over 80% | threshold level (minimum exposure time with significant response) (0.001 μM of concentration): greater than 72 hours | threshold level (minimum exposure time with significant response) (0.01 μM of concentration): greater than 72 hours | threshold level (minimum exposure time with significant response) (1 μM of concentration): 2 h | threshold level (minimum exposure time with significant response) (10 μM of concentration): 2 h | threshold level (minimum concentration with significant response, p 0.05) (2 hours of exposure): 1 µM | threshold level (minimum concentration with significant response, p 0.05) (6 hours of exposure): 0.1 µM | threshold level (minimum concentration with significant response, p 0.05) (12 hours of exposure): 0.1 µM | threshold level (minimum concentration with significant response, p 0.05) (24 hours of exposure): 0.1 µM | threshold level (minimum concentration with significant response, p 0.05) (72 hours of exposure): 0.1 µM | MD number relative to baseline MD number of 18.05 (72 hours of exposure, 10 μM, mean of four cell lines): 8.4 times | stress versus liver cells not exposed (significance of MD number) (concentration level 0.01 μM): no significant difference in stress | stress versus liver cells not exposed (significance of MD number) (concentration level 001 μM (so in the source)): no significant difference in stress | trend of MD number with time and concentration (human cell line 1153, similar for 1154, 1156, 1164): increases | trend of average MD number with exposure and concentration (mean of four human cell lines, 465 variables): increase | mean MD number (mean of four human cell lines, 72 hours of exposure, 10 μM, 465 variables): 151.76 | trend of average MD number with exposure and concentration (reduced sample set, only 10 genes, mean of four human cell lines): increase | genes of significance that exhibited a reaction, of 14,000 genes examined by micro-array (varying times and concentrations): 192 genes
